Assay results from US5521197A, “3-<1-alkylenearyl>-4-<1,2,3,6-tetrahydropyridinyl>-and 3-<1-alkylenearyl>-4-piperidinyl-1h-indoles: new 5-HT1F agonists” (Eli Lilly and Company, priority 1994, dated 1996).
Structures can show the parent of a compound that is named as a salt. Where two headings read alike, the source gives them in different places.

Target: T1, 5-HT1F receptor (Homo sapiens, UniProt P30939)
T1 sequence (P30939 1-366): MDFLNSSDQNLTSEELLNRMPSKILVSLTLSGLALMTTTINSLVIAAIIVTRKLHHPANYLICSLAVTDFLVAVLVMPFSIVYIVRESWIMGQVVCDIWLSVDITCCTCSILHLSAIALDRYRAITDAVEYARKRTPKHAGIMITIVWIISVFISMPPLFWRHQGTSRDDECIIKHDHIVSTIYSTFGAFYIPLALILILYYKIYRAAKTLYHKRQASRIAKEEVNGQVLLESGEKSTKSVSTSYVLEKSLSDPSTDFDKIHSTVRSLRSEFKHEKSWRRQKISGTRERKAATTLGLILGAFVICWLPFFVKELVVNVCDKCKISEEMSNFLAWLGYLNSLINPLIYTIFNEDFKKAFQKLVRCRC
Test: Radioligand ([3H]5-HT) binding to the 5-HT1F receptor subtype
Set-up: expressed in transfected cells; host or cells: Ltk- cells (membranes)
Conditions: for inhibition at 1 µM: read-out: 5-HT1F BINDING, % displacement at 1000 nM
Method: The cells were washed twice with phosphate-buffered saline, scraped from the culture dishes into 5 mL of ice-cold phosphate-buffered saline, and centrifuged at 200×g for 5 minutes at 4° C. The pellet was resuspended in 2.5 mL of ice-cold Tris buffer (20 mM Tris HCl, pH=7.4 at 23° C., 5 mM EDTA) and homogenized with a Wheaton tissue grinder. The lysate was subsequently centrifuged at 200×g for 5 minutes at 4° C. to pellet large fragments which were discarded. The supernatant was collected and centrifuged at 40,000×g for 20 minutes at 4° C. The pellet resulting from this centrifugation was washed once in ice-cold Tris wash buffer and resuspended in a final buffer containing 50 mM Tris HCl and 0.5 mM EDTA, pH=7.4 at 23° C. Membrane preparations were kept on ice and utilized within two hours for the radioligand binding assays.
Saturation studies were conducted using [^3 H]5-HT at 12 different concentrations ranging from 0.5 nM to 100 nM. […] The binding profile of drugs in competition experiments was accomplished using 10-12 concentrations of compound. […] Nonspecific binding was defined in the presence of 10 μM 5-HT. Binding was initiated by the addition of 50 μL membrane homogenates (10-20 μg). The reaction was terminated by rapid filtration through presoaked (0.5% polyethyleneimine) filters using 48R Cell Brandel Harvester (Gaithersburg, Md.). Subsequently, filters were washed for 5 seconds with ice cold buffer (50 mM Tris HCl, pH=7.4 at 4° C.), dried and placed into vials containing 2.5 mL Readi-Safe (Beckman, Fullerton, Calif.) and radioactivity was measured using a Beckman LS 5000TA liquid scintillation counter. […] Binding data was analyzed by computer-assisted nonlinear regression analysis (Accufit and Accucomp, Lunden Software, Chagrin Falls, Ohio). […] All experiments were performed in triplicate. […]

[1] = Table I, [3H]5-HT displacement, transfected Ltk- cell membranes, 37° C., read-out: 5-HT1F BINDING Ki

Structure (SMILES)	Ki [1] [nM]	other results
Fc1ccccc1CCN1CCC(c2c[nH]c3ccccc23)CC1 [Example 1, 3-<1-<2-<2-fluorophenyl>ethyl>-4-piperidinyl>-1H-indole hydrochloride]	29.5	
Fc1cccc(CCN2CCC(c3c[nH]c4ccccc34)CC2)c1 [Example 2, 3-<1-<2-<3-fluorophenyl>ethyl>-4-piperidinyl>-1H-indole hydrochloride]	55.5	
Fc1ccc(CCN2CCC(c3c[nH]c4ccccc34)CC2)cc1 [Example 3, 3-<1-<2-<4-fluorophenyl>ethyl>-4-piperidinyl>-1H-indole hydrochloride]	31	
COc1ccc2[nH]cc(C3CCN(CCc4ccc(F)cc4)CC3)c2c1 [Example 4, 5-methoxy-3-<1-<2-<4-fluorophenyl>ethyl>-4-piperidinyl>-1H-indolehydrochloride]	35.8	
Clc1ccccc1CCN1CCC(c2c[nH]c3ccccc23)CC1 [Example 5, 3-<1-<2-<2-chlorophenyl>ethyl>-4-piperidinyl>-1H-indole hydrochloride]	35.2	
Clc1cccc(CCN2CCC(c3c[nH]c4ccccc34)CC2)c1 [Example 6, 3-<1-<2-<3-chlorophenyl>ethyl>-4-piperidinyl>-1H-indole hydrochloride]	11.7	
Brc1ccc(CCN2CCC(c3c[nH]c4ccccc34)CC2)cc1 [Example 7, 3-<1-<2-<4-bromophenyl>ethyl>-4-piperidinyl>-1H-indole hydrochloride]	73.3	
Cc1ccccc1CCN1CCC(c2c[nH]c3ccccc23)CC1 [Example 8, 3-<1-<2-<2-methylphenyl>ethyl>-4-piperidinyl>-1H-indole hydrochloride]	45	
Cc1cccc(CCN2CCC(c3c[nH]c4ccccc34)CC2)c1 [Example 9, 3-<1-<2-<3-methylphenyl>ethyl>-4-piperidinyl>-1H-indole hydrochloride]	29.7	
Cc1ccc(CCN2CCC(c3c[nH]c4ccccc34)CC2)cc1 [Example 10, 3-<1-<2-<4-methylphenyl>ethyl>-4-piperidinyl>-1H-indole hydrochloride]	67.6	
COc1ccccc1CCN1CCC(c2c[nH]c3ccccc23)CC1 [Example 11, 3-<1-<2-<2-methoxyphenyl>ethyl>-4-piperidinyl>-1H -indole hydrochloride]	34	
COc1cccc(CCN2CCC(c3c[nH]c4ccccc34)CC2)c1 [Example 12, 3-<1-<2-<3-methoxyphenyl>ethyl>-4-piperidinyl>-1H-indole hydrochloride]	21.1	
COc1ccc(CCN2CCC(c3c[nH]c4ccc(OC)cc34)CC2)cc1 [Example 13, 5-methoxy-3-<1-<2-<4-methoxyphenyl>ethyl>-4-piperidinyl>-1H-indole oxalate]	128	
CCOc1ccc(CCN2CCC(c3c[nH]c4ccccc34)CC2)cc1 [Example 14, 3-<1-<2-<4-ethoxyphenyl>ethyl>-4-piperidinyl>-1H-indole hydrochloride]	185	
c1ccc(COc2ccc(CCN3CCC(c4c[nH]c5ccccc45)CC3)cc2)cc1 [Example 15, 3-<1-<2-<4-benzyloxyphenyl>ethyl>-4-piperidinyl>-1H-indole]	844	
FC(F)(F)c1ccccc1CCN1CCC(c2c[nH]c3ccccc23)CC1 [Example 16, 3-<1-<2-<2-trifluoromethylphenyl>ethyl>-4-piperidinyl>-1H-indolehydrochloride]	64.3	
FC(F)(F)c1cccc(CCN2CCC(c3c[nH]c4ccccc34)CC2)c1 [Example 17, 3-<1-<2-<3-trifluoromethylphenyl>ethyl>-4-piperidinyl>-1H -indole]	16.1	
Fc1ccc2[nH]cc(C3=CCN(CCc4ccccc4)CC3)c2c1 [Example 18, 5-fluoro-3-<1-<2-phenylethyl>-4-<1,2,3,6-tetrahydropyridinyl>>-1H-indolehydrochloride]		Ki: 48.3 nM
C1=C(c2c[nH]c3ccccc23)CCN(CCc2ccccc2)C1 [Example 19, 3-<1-<2-phenylethyl>-4-<1,2,3,6-tetrahydropyridinyl>>-1H-indole]		Ki: 81.1 nM

Structure (SMILES)	Ki [1] [nM]	other results
Clc1ccc2[nH]cc(C3=CCN(CCc4ccccc4)CC3)c2c1 [Example 20, 5-chloro-3-<1-<2-phenylethyl>-4-<1,2,3,6-tetrahydropyridinyl>>-1H-indolehydrochloride]		Ki: 38.8 nM
COc1ccc2[nH]cc(C3=CCN(CCc4ccccc4)CC3)c2c1 [Example 21, 5-methoxy-3-<1-<2-phenylethyl>-4-<1,2,3,6-tetrahydropyridinyl>>-1H-indolehydrochloride]		Ki: 33.9 nM
C1=C(c2c[nH]c3ccc(OCc4ccccc4)cc23)CCN(CCc2ccccc2)C1 [Example 22, 5-benzyloxy-3-<1-<2-phenylethyl>-4-<1,2,3,6-tetrahydropyridinyl>>-1H-indolehydrochloride]		inhibition at 1 µM: 62%
Cc1ccc2[nH]cc(C3=CCN(CCc4ccccc4)CC3)c2c1 [Example 23, 5-methyl-3-<1-<2-phenylethyl>-4-<1,2,3,6-tetrahydropyridinyl>>-1H-indolemaleate]		Ki: 28.3 nM
NC(=O)c1ccc2[nH]cc(C3=CCN(CCc4ccccc4)CC3)c2c1 [Example 24, 5-carboxamido-3-<1-<2-phenylethyl>-4-<1,2,3,6-tetrahydropyridinyl>>-1H-indole maleate]		Ki: 23.6 nM
Fc1ccc2[nH]cc(C3CCN(CCc4ccccc4)CC3)c2c1 [Example 25, 5-fluoro-3-<1-<2-phenylethyl>-4-piperidinyl>-1H-indole hydrochloride]	29.6	
c1ccc(CCN2CCC(c3c[nH]c4ccccc34)CC2)cc1 [Example 26, 3-<1-<2-phenylethyl>-4-piperidinyl>-1H-indole]	52.1	
Clc1ccc2[nH]cc(C3CCN(CCc4ccccc4)CC3)c2c1 [Example 27, 5-chloro-3-<1-<2-phenylethyl>-4-piperidinyl>-1H-indole hydrochloride]	45.5	
COc1ccc2[nH]cc(C3CCN(CCc4ccccc4)CC3)c2c1 [Example 28, 5-methoxy-3-<1-<2-phenylethyl>-4-piperidinyl>-1H-indole hydrochloride]	39.2	
c1ccc(CCN2CCC(c3c[nH]c4ccc(OCc5ccccc5)cc34)CC2)cc1 [Example 29, 5-benzyloxy-3-<1-<2-phenylethyl>-4-piperidinyl>-1H-indole hydrochloride]	17.2	
Cc1ccc2[nH]cc(C3CCN(CCc4ccccc4)CC3)c2c1 [Example 30, 5-methyl-3-<1-<2-phenylethyl>-4-piperidinyl>-1H -indole hydrochloride]	37.8	
NC(=O)c1ccc2[nH]cc(C3CCN(CCc4ccccc4)CC3)c2c1 [Example 31, 5-carboxamido-3-<1-<2-phenylethyl>-4-piperidinyl>-1H-indole hydrochloride]	36.9	
Clc1ccc(CCN2CCC(c3c[nH]c4ccccc34)CC2)cc1 [Example 32, 3-<1-<2-<4-chlorophenyl>ethyl>-4-piperidinyl>-1H-indole hydrochloride]	52.1	
COc1ccc(CCN2CCC(c3c[nH]c4ccccc34)CC2)cc1 [Example 33, 3-<1-<2-<4-methoxyphenyl>ethyl>-4-piperidinyl>-1H-indole hydrochloride]	127	
C1=C(c2c[nH]c3ccccc23)CCN(CCc2cccc3ccccc23)C1 [Example 34, 3-<1-<2-<1-naphthyl>ethyl>-4-<1,2,3,6-tetrahydropyridinyl>>-1H-indole]		inhibition at 1 µM: 38%
c1ccc2c(CCN3CCC(c4c[nH]c5ccccc45)CC3)cccc2c1 [Example 35, 3-<1-<2-<1-naphthyl>ethyl>-4-piperidinyl>-1H-indole]	76.7	
Oc1ccc2[nH]cc(C3CCN(CCc4ccccc4)CC3)c2c1 [Example 36, 5-hydroxy-3-<1-<2-phenylethyl>-4-piperidinyl>-1H-indole hydrochloride]	2.5	
C1=C(c2c[nH]c3ccccc23)CCN(CCOc2ccccc2)C1 [Example 37, 3-<1-<2-phenoxyethyl>-4-<1,2,3,6-tetrahydropyridinyl>>-1H-indolehydrochloride]	413	
C1=C(c2c[nH]c3ccccc23)CCN(CCCOc2ccccc2)C1 [Example 38, 3-<1-<3-phenoxypropyl>-4-<1,2,3,6-tetrahydropyridinyl>>-1H-indolehydrochloride]	136	
